Test results as given in US6015820A, “4-Aryl-thio-pyridin-2(1H)-ones, medicines containing them and their uses in the treatment of illnesses linked to HIV” (priority 1995, dated 2000).
Read-outs that look alike come from different tables or passages of the source.

Columns and labels:
Format in all cases: cell-based
[1] = tested on: HIV-1 LAI; assay: anti-HIV-1 activity: replication of HIV-1 LAI on CEM-SS cells
Description: The CEM-SS and the HIV-1 resistant to Nevirapine (N119) carrying a point mutation at codon 181 of the IT, were supplied respectively by P. NARA and D. RICHMAN through the intermediary of the AIDS Research and Reference Reagent Program, Division of AIDS, NIAID, NIH (USA) (Catalogue references : No. 776 and No. 1392).
The virus production was measured by quantifying the activity of the inverse transcriptase associated with viral particles released into the culture supernatant. In short, cells were infected with 100 TCID50 for 30 minutes; after adsorption of the virus, unbound particles were removed by two washings and the cells were cultivated in the presence of different concentrations of the compounds tested for 5 days before determining the viral production. The concentration inhibiting 50% of the viral multiplication (IC50) came from the computer plot of the median effect of the dose effect results (Chou et al. Elsevier Science Publishers, Cambridge U.K. (1985), 19-28).

[2] = cytotoxicity on non-infected cells (MTT test); conditions: human; Table 2; non-infected CEM-SS cells, MTT, 5 days
Description: In parallel experiments, the cytotoxicity of the molecules was measured on non-infected cells, after an incubation of 5 days in the presence of these molecules, by using a […] titration (MTT test) based on the ability of the mitochondrial dehydrogenases of the living cells to reduce 3-(4,5-dimethylthiazol-2-yl)-2,5-diphenyltetrazolium bromide in formazan (Mosmann et al. J. Immunol. Methods ([…]), 65, 55-63). The concentration cytotoxic at 50% (CC50) is the concentration at which the DO540 has been reduced to half and is calculated by using the program mentioned above.

[3] = tested on: isolated virion HIV-1LAI; assay: infectivity of the isolated virion after treatment with inhibitors (HT4LacZ cells)
Description: H9 cells chronically infected with HIV-1LAI (10^8 /ml) were cocultivated with MT4 cells (10^8 /ml) for 48 hours in an RMPI medium supplemented by 10% of calf foetal serum (CFS). The cells were then removed by centrifugation and then the supernatant liquid was filtered (0.45 μm) to remove residual cells and cell debris.
After having been incubated with the various inhibitors, the viral supernatants (200 μl) were deposited in the filtering part of a VectaSpin tube (WHATMAN) fitted with an ANAPORE membrane of porosity 0.02 μm. For 10 minutes they were subjected to centrifugation, the acceleration of which reached 6000 g at the filtering membrane. The viral residuums thereby obtained (10-15 μl ) were washed 3 times under the same conditions with 500 μl of RPMI then restored to their initial volumes with RPMI containing 10% of CFS.
The HT4LacZ-1 cells were kept in a DMEM medium (glucose 4.5 g/l) supplemented with 10% of calf foetal serum in the presence of Gentamycin (50 mg/l). These cells stemmed from Hela cells in which had been cloned, on the one hand the gene coding for the human CD4 so as to render them susceptible to infection by the HIV (Chesebro and Wehrly, 1988, J. Virol., 62, 3779-3788), and on the other hand the gene for β-Galactosidase which, placed under the dependent of the LTR of the HIV-1 served as a marker for the viral infection (Rocancourt et al. (1990) J. Virol. 1990 64-6, 2660-2688). When the virus infects such cells after its integration into the cellular genome, the production of the regulatory protein TAT activates the LTR of the HIV. The result is an activation of the gene of β-Galactosidase which leads to its production in the intracellular medium and more particularly in the nucleus. It is this protein that serves as a marker of the infection.
The evening of day 0, the HT4LacZ-1 cells were diluted at the rate of 75000 cells per ml of medium. 100 μl of this suspension was then distributed over a flat bottomed plate with 96 wells and was cultivated overnight at 37° C. (5% of CO2).
The morning of day 1, the supernatant liquid was removed by aspiration. Each well was then complemented with 200 μl of the viral supernatant dilutions to be tested. Each dilution was made in a DMEM medium (glucose 4.5 g/l) supplemented with 10% of CFS. The plates were then placed in an environment at 37° C. in the presence of 5% of CO2.
After 48 hours of culture, the supernatant liquid was aspirated, then each well was washed 3 times in PBS before being complemented with 200 μl of developing buffer (Tris-HCl 50 mM pH=8.5, ONPG 5 mg/ml β-mercapto-ethanol 7 μl/ml Triton×100 0.05%). After 4 hours of incubation at 37° C., the optical density of each well was measured.
The concentration of each of the inhibitors of the IT of the HIV-1 was adjusted to 50 mM in DMSO. The later dilutions were carried out on RPMI 1640. 2 μl of suitable dilutions of each of these inhibitors were added to 198 μl of a freshly unfrozen viral suspension. After 3 hours of incubation at ambient temperature, these suspensions were filtered on 0.02 μ VecraSpin tubes, then washed 3 times with 500 μl of RPMI 1640. The viral residuums were then adjusted to 200 μL with the culture medium (RPMI-10% CFS), then tested with regard to their infectivity on HT4LacZ cells.

[4] = Human immunodeficiency virus 1, 120 h, Table 2, HIV-1 LAI, CEM-SS cells, 5 days, read-out: IC50, anti-HIV-1 activity
[5] = Table 2, HIV-1 LAI, CEM-SS cells
[6] = Human immunodeficiency virus 1, 1 μM inhibitor, 3 h, 100 TCID50, compared with viral supernatant subjected to same treatments, mean of 1 to 4 experiments, read-out: Activity of the isolated virions after treatment
[7] = Human immunodeficiency virus 1, 10 μM inhibitor, 3 h, 100 TCID50, compared with viral supernatant subjected to same treatments, mean of 1 to 4 experiments, read-out: Activity of the isolated virions after treatment
[8] = Human immunodeficiency virus 1, 3 h, read-out: Activity of the isolated virions after treatment

Row | Compound | IC50 [1, 4] [µM] | CC50 at 120 h [2] [µM] | SI (selectivity index) [1, 5] | other results
1 | Cc1cnc(O)c([N+](=O)[O-])c1Sc1ccccc1 [Compound 7d, 5-methyl-3-nitro-4-phenylthio-pyridin-2(1H)-one] | > 10 | > 10 |  | 
2 | Cc1cc(C)cc(Sc2c(C)c[nH]c(=O)c2NC=O)c1 [Compound 11a, 3-formamido-5-methyl-4-(3', 5'-dimethylphenyl)thio-pyridin-2(1H)-one] | 6.6 | > 100 | > 15 | 
3 | CCOCc1c[nH]c(=O)c([N+](=O)[O-])c1Sc1cc(C)cc(C)c1 [Compound 7g, 5-ethoxymethyl-3-nitro-4-(3', 5'-dimethylphenyl)thio-pyridin-2(1H)-one] | 0.005 | > 10 | > 2000 | 
4 | Cc1cc(C)nc(Sc2c(C)c[nH]c(=O)c2[N+](=O)[O-])n1 [Compound 9a, 5-methyl-3-nitro-4-(4', 6'-dimethylpyrimidin-2-yl)thiopyridin-2(1H)-one] | 17.5 | 19.5 | > 1 | 
5 | Cc1cnc(O)c([N+](=O)[O-])c1Sc1nc2ccccc2s1 [Compound 9e, 5-methyl-3-nitro-4-(benzothiazol-2-yl)thio-pyridin-2(1H)-one] | 14.5 | 13.5 |  | 
6 | Cc1c[nH]c(=O)c([N+](=O)[O-])c1Sc1nc2ccccc2o1 [Compound 9d, 5-methyl-3-nitro-4-(benzoxazol-2-yl)thiopyridin-2(1H)-one] | 5.5 | 16 | > 2 | 
7 | CCCCCCC(=O)Nc1c(Sc2cc(C)cc(C)c2)c(C)c[nH]c1=O [Compound 11d, 3-heptanamido-5-methyl-4-(3', 5'-dimethylphenyl)thio-pyridin-2(1H)-one] | > 10 | > 10 |  | 
8 | Cc1cnc(O)c(N)c1Sc1nc2ccccc2o1 [Compound 10, 3-amino-5-methyl-4-(benzoxazol-2-yl)thio-pyridin-2(1H)-one] | 8 | 7.5 |  | 
9 | Nc1ccn([C@@H]2CS[C@H](CO)O2)c(=O)n1 [Compound 3TC] |  |  |  | activity at 1 µM [3, 6]: 100%; activity at 10 µM [3, 7]: 100%; activity on the isolated virion (in words) [3]: totally inactive
10 | Cc1ccnc2c1NC(=O)c1cccnc1N2C1CC1 [Nevirapine] |  |  |  | activity at 0.1 µM ([3]; Human immunodeficiency virus 1, 0.1 μM inhibitor, 3 h, 100 TCID50, compared with viral supernatant subjected to same treatments, mean of 1 to 4 experiments, read-out: Activity of the isolated virions after treatment): 86%; activity at 1 µM [3, 6]: 86%; activity at 10 µM [3, 7]: 111%; activity on the isolated virion (in words) [3]: totally inactive
11 | Cc1c[nH]c(=O)c([N+](=O)[O-])c1Sc1nc2ccccc2[nH]1 [Compound 9c, 5-methyl-3-nitro-4-(benzimidazol-2-yl)thiopyridin-2(1H)-one] | 43.5 | 54.5 | > 1 | 
12 | Cc1c[nH]c(=O)c([N+](=O)[O-])c1Sc1nccn1C [Compound 9g, 5-methyl-3-nitro-4-(N-methylimidazol-2-yl)thio-pyridin-2(1H)-one] | 56 | 68.5 | > 1 | 
13 | Cc1cn([C@H]2C=C[C@@H](CO)O2)c(=O)[nH]c1=O [d4T] |  |  |  | activity at 1 µM [3, 8]: 130%; activity at 10 µM [3, 8]: 127%; activity on the isolated virion (in words) [3]: totally inactive
14 | CCOCc1c[nH]c(=O)c(N)c1Sc1cc(C)cc(C)c1 [Compound 8g, 3-amino-5-ethoxymethyl-4-(3', 5'-dimethylphenyl)thio-pyridin-2(1H)-one] | 0.02 | > 10 | > 500 | 
15 | Cc1cc(C)cc(Sc2c(C)cnc(O)c2NC(=O)Cc2ccccc2)c1 [Compound 11e, 5-methyl-3-phenylacetamido-4-(3', 5'-dimethylphenyl)thio-pyridin-2(1H)-one] | > 10 | > 10 |  | 
16 | Cc1c[nH]c(=O)c([N+](=O)[O-])c1SC1=NCCS1 [Compound 9f, 5-methyl-3-nitro-4-(thiazolin-2-yl) thio-pyridin-2(1H)-one] | 17 | 21.5 | > 1 | 
17 | CCOC(=O)Nc1c(Sc2cc(C)cc(C)c2)c(C)c[nH]c1=O [Compound 11f, 5-methyl-3-N-ethoxycarbamoyl-4-(3', 5'-dimethylphenyl)thio-pyridin-2(1H)-one] | 7.5 | > 100 | > 13 | 
18 | O=c1[nH]cnc2c1ncn2[C@H]1CC[C@@H](CO)O1 [ddl] |  |  |  | activity at 1 µM [3, 6]: 100%; activity at 10 µM [3, 7]: 100%; activity on the isolated virion (in words) [3]: totally inactive
19 | Cc1cn([C@H]2C[C@H](N=[N+]=[N-])[C@@H](CO)O2)c(=O)[nH]c1=O [AZT, reference compound] | 0.003 | > 100 | > 33333 | IC50 ([1]; Human immunodeficiency virus 1, CEM-SS, Table 4, HIV-1 (LA1)/CEMSS, read-out: IC50): 0.00084 µM; activity at 1 µM [3, 8]: 99%; activity at 10 µM [3, 8]: 99%; activity on the isolated virion (in words) [3]: totally inactive
20 | Cc1cc(O)nc(Sc2c(C)cnc(O)c2[N+](=O)[O-])n1 [Compound 9b, 5-methyl-3-nitro-4-(4'-hydroxy-6'-methylpyrimidin-2-yl)thiopyridin-2(1H)-one] | > 100 | > 100 |  | 
21 | Cc1c[nH]c(=O)c([N+](=O)[O-])c1Sc1ccccn1 [Compound 9h, 5-methyl-3-nitro-4-(2-pyridyl) thio-pyridin-2(1H)-one] | 18 | 28.5 | > 1 | 
